pIC50, pKi: −log10 of the molar value. Entries after “also recorded” stand apart in the source; their conditions may differ.
Assays:
[1] = system: B16-F10-GP33 melanoma cells; experiment: In vitro tumor cell death of B16 melanoma cells; assay type: cell-based; details: 24, 48 and 72 hours, different doses
Text: Ordinary two-way ANOVA test, Dunnett's test. Error bars indicate SEM. N=4 replica of 2 independent experiments.

[2] = system: CT2A-gp33 glioma; experiment: CT2A-gp33 glioma model; assay type: in vivo, mouse; details: combined with PD-L1 blockade; CD8-KO or Rag1-KO animals, P14 CD8 T cells transferred
[3] = system: virus-specific exhausted CD8 T cells; assay type: in vivo, mouse
[4] = system: tumor-specific CD8 T cells; experiment: Tumor-infiltrating lymphocyte analysis in CT2A-gp33 glioma model; assay type: in vivo, mouse; details: combined with PD-L1 blockade
Experimental: CT2A-gp33 Glioma Model: The efficacy of GSK467 therapy was tested using CT2A-gp33 glioma model with gp33-specific P14 CD8 T cells adoptively transferred on day 17-20. […] (FIGS. 38A-38C)

[5] = system: B16-F10 melanoma; experiment: B16-F10 melanoma model; assay type: in vivo, mouse; details: 5 mg/Kg, every 2 days i.p.
Text: (§1) Targeting KDM5B in melanoma cells leads to enhanced tumor rejection by derepressing the expression of endogenous retroviral elements in tumor cells and reducing immune evasion of tumor cells. These findings provide a strong rationale for testing the in vivo efficacy of a selective KDM5A/B inhibitor as an adjunctive treatment to ICB therapy in ICB-refractory tumors. Discussed herein is whether the pharmacological inhibition of KDM5A/B recovers the responses of anti-tumor CD8 T cells to ICB treatment during solid tumors. Utilized herein are two tumor models known to be refractory to PD-1/PD-L1 blockade therapy, including orthotopic OVA-expressing PyMT breast adenocarcinoma and GP33-expressing B16-F10 melanoma in C57BL/6 animals. One week following the adoptive transfer of Thy1.1+TCR-transgenic CD8 T cells (OVA-specific OT-I or GP33-specific P14 cells) into tumor-bearing animals, mono- or combined therapy using KDM5A/Bi plus anti-PD-L 1 treatment was started (FIG. 25A-25B). Changes in tumor growth was tracked and measure the quantity, phenotype, proliferative potential, and functional capacity of adoptively transferred anti-tumor CD8 T cells measured within tumors and draining lymph nodes using spectral cytometry as described herein. […]

[6] = system: TBX21 locus; experiment: DNA methylation at dysfunction-associated differentially methylated region, targeted Oxford Nanopore assay; assay type: cell-based, human; details: GSK467 with or without TGFBR1 inhibitor (Repsox)
Experimental: To determine whether targeting H3K4 demethylation can reduce de novo DNA methylation programs at the effector function-related genes in human CD8 T cells, the changes in DNA methylation levels were assessed at the dysfunction-associated differentially methylated region in dysfunctional human CD8 T cells after GSK467 (KDM5A/B inhibitor) with or without TGFBR1 inhibitor (Repsox) treatment.

[7] = system: dysfunctional human CD8 T cells; experiment: In vitro model of human CD8 T cell dysfunction (chronic TCR plus TGFβ1 stimulation, day 28): effector functions, polyfunctionality, memory programs; assay type: cell-based; details: for effector functions of human TEX cells: FIGS. 49A-49E
[8] = system: PyMT-OVA breast adenocarcinoma; experiment: Orthotopic breast cancer model (PyMT-OVA breast adenocarcinoma); assay type: in vivo, mouse; details: combined with PD-L1 blockade, compared to PD-L1 blockade only
Text: FIGS. 16A-16C show therapeutic blockade of KDM5A and KDM5B boosts the responses of anti-tumor CD8 T cells to ICB therapy.
as §1

[9] = system: AML cells; experiment: Tumor-killing activity of treated dysfunctional human CD8 T cells (coculture with AML cells, 18 hr); assay type: cell-based; details: with TGFβ1 blockade (TGFBR1 blocker); 25 μM GSK467; days 14-28
[10] = system: Tprog, Tcyto and Tterm CD8 T cells; details: mouse, in vivo
[11] = target: KDM5A and KDM5B; details: cited from earlier work
[12] = cited from earlier work
[13] = system: other Jumonji family members; details: cited from earlier work
[14] = system: P14 CD8 T cells; details: mouse, in vivo
[15] = system: KDM6; details: cited from earlier work
[16] = system: H3K4me3; details: myeloma cells; cited from earlier work
[17] = system: myeloma cells; details: cited from earlier work
[18] = system: other immune cells; details: cited from earlier work
[19] = system: TEX cells; details: cited from earlier work
[20] = either GSK467 or C70, C70 25 μM, days 14-28

SMILES: O=c1nc(Oc2cnn(Cc3ccccc3)c2)[nH]c2cnccc12 [GSK467]
- tumor cell death, frequencies of dead B16 melanoma cells [1]: increases B16 melanoma tumor death in vitro
- tumor control [2]: significant tumor control
- expansion of IFNG-secreting virus-specific CD8 T cells ([3]; mouse, in vivo): significant expansion of both Tprog and Tcyto cells, as well as IFNG-secreting virus-specific CD8 T cells
- expansion of Tprog and Tcyto cells ([3]; mouse, in vivo): significant expansion of both Tprog and Tcyto cells
- responses of virus-specific exhausted CD8 T cells to PD-L1 blockade ([3]; mouse, in vivo): enhanced the responses of virus-specific TEX cells to PD-L1 blockade; also recorded: enhanced the responses of virus-specific exhausted CD8 T cells to PD-L1 blockade
- TEX cell responses to ICB during chronic LCMV infection ([3]; with anti-PD-L1 (FIGS. 7A-7E)): enhances TEX responses to ICB
- frequencies of IFNG-secreting tumor-specific CD8 T cells [4]: increased frequencies of IFNG-secreting tumor-specific CD8 T cells
- quantities of tumor-specific CD8 T cells [4]: significant increase in the quantities of tumor-specific CD8 T cells
- tumor control, combination ([5]; combination with PD-L1 blockade, days 12-20): further potentiated with combination PD-L1 blockade therapy
- tumor control ([5]; monotherapy, days 12-20 post-tumor inoculation): significant tumor control
- acquisition of de novo DNA methylation marks at the TBX21 locus [6]: significantly reduced the acquisition of de novo DNA methylation marks at the TBX21 locus
- effector functions of human TEX cells [7]: enhances effector functions of human TEX cells
- polyfunctionality and memory expression programs [7, 20]: significantly enhanced polyfunctionality and memory expression programs
- cytolytic activity and effector functions of dysfunctional human T cells ([7]; in vitro, direct effects on CD8 T cells): enhances the cytolytic activity and effector functions of dysfunctional human T cells
- effector and memory programs in dysfunctional human CD8 T cells ([7]; late treatment): can recover effector and memory programs
- effector cytokine secretion and expression of memory-related transcription factors ([7]; monotherapy, 25 μM GSK467, days 14-28): significantly restored effector cytokine secretion and expression of memory-related transcription factors
- polyfunctionality and memory expression programs ([7]; with TGFβ1 blockade (TGFBR1 blocker), 25 μM GSK467, days 14-28): further potentiated the reactivation of polyfunctionality and memory expression programs
- breast tumor control [8]: significant breast tumor control
- tumor-killing activity [9]: augmented tumor-killing activity
- development of Tterm cells [10]: impeding the development of Tterm cells
- quantity of Tcyto cells [10]: increased the quantity of Tcyto cells
- pKi ([11]; role: inhibitor, stated for KDM5A and KDM5B together): 8.00
- pIC50 ([11]; stated for KDM5A and KDM5B together): 7.59
- cell penetration / permeability [12]: cell penetrant
- inhibitory effects toward other Jumonji family members [13]: no measurable inhibitory effects
- proliferation response and long-lived memory function after ICB treatment [14]: synergized their proliferation response and promote long-lived memory function after ICB treatment
- inhibitory effects toward KDM6 [15]: no measurable inhibitory effects

SMILES: CCOC(=O)c1ccnc(CNCC(=O)N(CC)CCN(C)C)c1 [C70]
- effector functions of human TEX cells [7]: enhances effector functions of human TEX cells
- polyfunctionality and memory expression programs [7, 20]: significantly enhanced polyfunctionality and memory expression programs
- H3K4me3 levels [16]: genome-wide elevation of H3K4me3 levels
- antiproliferative effect [17]: antiproliferative effect
- KDM5A and KDM5B histone demethylase inhibition [11]: potent
- cell penetration / permeability [12]: cell-permeable

SMILES: Nc1ncn([C@H]2C[C@H](O)[C@@H](CO)O2)c(=O)n1 [decitabine]
- cytotoxicity and adverse effects [18]: highly cytotoxic drug that has adverse effects on other immune cells
- selectivity [18]: non-selective
- response of TEX cells, with ICB therapy [19]: synergizes with ICB therapy to rescue the response of TEX cells

SMILES: Cc1cccc(-c2[nH]ncc2-c2ccc3ncccc3n2)n1 [TGFBR1 blocker]
- effector functions of chronically stimulated CD8 T cells ([7]; TGFβ1 blockade alone, days 14-28): recovered effector functions of chronically stimulated CD8 T cells
